Source: BindingDB's records for patent US12459916 (Bayer Pharma Aktiengesellschaft, 2025)

Molecular target: T1, Interleukin-1 receptor-associated kinase 4 (UniProt A0A8C0TG75)
T1 sequence (A0A8C0TG75 whole entry): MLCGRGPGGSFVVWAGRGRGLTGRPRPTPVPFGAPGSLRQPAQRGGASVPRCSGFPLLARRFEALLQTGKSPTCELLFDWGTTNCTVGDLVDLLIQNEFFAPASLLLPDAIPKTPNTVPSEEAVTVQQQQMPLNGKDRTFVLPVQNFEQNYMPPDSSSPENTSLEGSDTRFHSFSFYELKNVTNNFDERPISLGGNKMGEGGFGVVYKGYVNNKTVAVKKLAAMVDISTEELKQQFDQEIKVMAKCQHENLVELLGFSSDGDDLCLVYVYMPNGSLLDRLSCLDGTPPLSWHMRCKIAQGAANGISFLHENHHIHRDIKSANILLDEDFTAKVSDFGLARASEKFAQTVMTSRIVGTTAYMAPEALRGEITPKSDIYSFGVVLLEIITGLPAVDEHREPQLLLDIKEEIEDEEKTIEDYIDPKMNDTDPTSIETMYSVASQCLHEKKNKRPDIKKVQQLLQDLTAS
Experiment: Canine IRAK4 Kinase Assay
Method: 50 nl of the respective solution were pipetted into a black low-volume 384-well microtitre plate (Greiner Bio-One, Frickenhausen, Germany), 2 μl of a solution of Irak4 in assay buffer [50 mM HEPES pH 7.5, 5 mM MgCl2, 1.0 mM dithiothreitol, 30 μM activated sodium orthovanadate, 0.1% (w/v) of bovine gamma-globulin (BGG) 0.04% (v/v) nonidet-P40 (Sigma)] were added and the mixture was incubated for 15 min to allow prebinding of the substances to the enzyme prior to the kinase reaction. […] The concentration of the Irak4 was adjusted to the respective activity of the enzyme and set such that the assay was carried out in the linear range. Typical concentrations were in the order of about 0.1 nM.

| SMILES | IC50 [nM] |
| --- | --- |
| CC(C)(O)CCn1cc2cc(NC(=O)c3cccc(C(F)F)n3)c(C(C)(C)O)cc2n1 [US12459916, Example 13] | 1.75 |
| Cc1nc(C(=O)Nc2cc3cn(CCC(C)(C)O)nc3cc2C(C)(C)O)ccc1F [US12459916, Example 19] | 8.46 |
